# Values quoted from earlier work as cited in paper PMC2074382 (British Journal of Cancer, 1996).
# Where a name gives a salt, the structure may show the parent alone.
# Experiments:
# [1] = animals, intravenous route; cited from earlier work
# [2] = test system: mice; conditions: by rough estimate; cited from earlier work
smiles,measurement,setting,value
"CC[C@@]1(O)C(=O)OCc2c1cc1n(c2=O)Cc2c-1nc1cc3c(cc1c2CN1CCN(C)CC1)OCCO3 [GI147211, [7 - (methylpiperazinomethylene) - 10,11 - ethylene-dioxy-20(S)] camptothecin dihydrochloride]",main and dose-limiting toxicity,[1],myelosuppression
same,murine LD10 compared with topotecan,[2],equivalent to topotecan
